# In US10654802B2, “Indoline derivatives and method for using and producing the same” (ARIZONA BOARD OF REGENTS ON BEHALF OF THE UNIVERSITY OF …, priority 2016, dated 2020):
# Target: T1, Nox4 (Homo sapiens, UniProt Q9NPH5)
# T1 construct: expressed in transfected cells
# T1 sequence (Q9NPH5 1-578): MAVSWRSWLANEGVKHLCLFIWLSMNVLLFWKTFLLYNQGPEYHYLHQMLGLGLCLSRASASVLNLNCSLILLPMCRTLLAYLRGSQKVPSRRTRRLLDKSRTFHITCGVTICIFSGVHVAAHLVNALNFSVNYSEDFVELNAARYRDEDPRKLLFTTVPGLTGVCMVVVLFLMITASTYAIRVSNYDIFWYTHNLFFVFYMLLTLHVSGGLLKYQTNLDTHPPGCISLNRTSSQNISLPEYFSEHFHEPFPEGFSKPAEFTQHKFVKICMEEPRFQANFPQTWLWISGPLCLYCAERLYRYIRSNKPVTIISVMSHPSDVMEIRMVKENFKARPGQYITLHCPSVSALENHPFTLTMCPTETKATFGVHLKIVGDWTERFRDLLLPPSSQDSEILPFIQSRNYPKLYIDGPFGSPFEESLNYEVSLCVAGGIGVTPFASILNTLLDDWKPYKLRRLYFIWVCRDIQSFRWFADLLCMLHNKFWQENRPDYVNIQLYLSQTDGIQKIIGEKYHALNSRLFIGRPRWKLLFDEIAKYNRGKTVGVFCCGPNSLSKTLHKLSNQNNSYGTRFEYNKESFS
# T1 sequence (P13498 1-195 partner): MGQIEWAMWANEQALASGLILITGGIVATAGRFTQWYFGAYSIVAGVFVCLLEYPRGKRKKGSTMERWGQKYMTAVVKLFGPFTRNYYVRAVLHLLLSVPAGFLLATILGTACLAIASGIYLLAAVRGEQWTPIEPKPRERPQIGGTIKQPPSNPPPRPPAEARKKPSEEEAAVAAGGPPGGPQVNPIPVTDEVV
# Experiment: Inhibition of Nox4-dependent H2O2 production in HEK/Nox4 cells, Amplex Red assay
# Format: cell-based
# Conditions: 1 h, HEK/Nox4 cells, DMSO vehicle = 1.000, n = 3-10, read-out: H2O2 production relative to vehicle control, Mean; for remaining activity at 1 µM: 1 μM final concentration; for remaining activity at 5 µM: 5 μM final concentration; for remaining activity at 10 µM: 10 μM final concentration
# Procedure: A high-throughput screening (HTS) assay was established for Nox4 inhibition, utilizing HEK293 cells that stably over-express Nox4 (HEK/Nox4 cells), which generate high levels of H2O2(Cheng G et al, Gene: 2001, p. 131-140). Over 30,000 compounds have been screened and medicinal chemistry efforts have led to the synthesis of numerous analogs and the identification of a chemically distinct series of selective Nox4 inhibitors. […] IC-50 was evaluated for UANox048 (FIG. 1B).
# HEK cells stably transfected to overexpress Nox4 were treated with varying concentrations of test compounds, DPI (all-Nox inhibitor positive control), or DMSO (vehicle control) and incubated for 1 h (FIG. 1). (FIG. 1A) H2O2 presence was evaluated by Amplex Red assay. […] Values represent means±SEM; n=4. P values were calculated by student's two-tailed t test. *p<0.05, **p<0.01, *** p<0.001.
Structure (SMILES),remaining activity at 1 µM,remaining activity at 5 µM,remaining activity at 10 µM
"CC(CNC(=O)c1csc(-c2ccccc2)n1)N1CCc2ccccc21 (stereo not drawn) [UANOX055, N-(2-(indolin-1-yl)propyl)-2-phenylthiazole-4-carboxamide]",90.2%,90.8%,86.8%
"CC(CNC(=O)c1csc(-c2ccc(C(F)(F)F)cc2)n1)N1CCc2ccccc21 (stereo not drawn) [UANOX056, N-(2-(indolin-1-yl)propyl)-2-(4-(trifluoromethyl)phenyl)thiazole-4-carboxamide]",95.9%,88.4%,83.4%
"O=S(=O)(c1ccc(OC(F)(F)F)cc1)N1CCN(CCN2CCc3ccccc32)CC1 [UANOX062, 1-(2-(4-((4-(trifluoromethoxy)phenyl)sulfonyl)piperazin-1-yl)ethyl)indoline]",88.7%,75.8%,66.4%
"CCN(CC)S(=O)(=O)N1CCN(CCN2CCc3ccccc32)CC1 [UANOX063, N,N-diethyl-4-(2-(indolin-1-yl)ethyl)piperazine-1-sulfonamide]",90.2%,71.9%,66.5%
"O=S(=O)(c1ccc(F)cc1)N1CCN(CCN2CCc3ccccc32)CC1 [UANOX064, 1-(2-(4-((4-fluorophenyl)sulfonyl)piperazin-1-yl)ethyl)indoline]",86.3%,75.7%,72.4%
CCN(CC)C(=O)N1CCN(CCN2CCc3ccccc32)CC1 [UANOX066],95.3%,72.2%,73.1%
"Fc1ccccc1CN1CCN(CCN2CCc3ccccc32)CC1 [UANOX067, 1-(2-(4-(2-fluorobenzyl)piperazin-1-yl)ethyl)indoline]",93.9%,91.2%,85.1%
"CC(CNS(=O)(=O)c1ccc(Oc2ccc(C(F)(F)F)cn2)cc1)N1CCc2ccccc21 (stereo not drawn) [UANOX070, N-(2-(indolin-1-yl)propyl)-4-((5-(trifluoromethyl)pyridin-2-yl)oxy)benzenesulfonamide]",91.4%,77.9%,69.3%
"CC(CNS(=O)(=O)c1ccc(Oc2ccccc2)cc1)N1CCc2ccccc21 (stereo not drawn) [UANOX071, N-(2-(indolin-1-yl)propyl)-4-phenoxybenzenesulfonamide]",90.8%,85.6%,77%
CC(CNS(=O)(=O)c1ccc(C#N)cc1)N1CCc2ccccc21 (stereo not drawn) [UANOX073],94.2%,75.9%,74.4%
"O=S(=O)(NCCN1CCc2ccccc21)c1ccc(C(F)(F)F)cc1 [UANOX075, 4-trifluoromethyl-N-(2-(indolin-1-yl)ethyl)benzenesulfonamide]",82.3%,72.1%,67.7%
"O=S(=O)(NCCN1CCc2ccccc21)c1ccc(OC(F)(F)F)cc1 [UANOX076, 4-trifluoromethoxy-N-(2-(indolin-1-yl)ethyl)benzenesulfonamide]",83.2%,72%,66.2%
"O=S(=O)(NCCN1CCc2ccccc21)c1ccc(Oc2ccccc2)cc1 [UANOX079, N-(2-(indolin-1-yl)ethyl)-4-phenoxybenzenesulfonamide]",89.6%,65.1%,58.4%
"O=S(=O)(NCCN1CCc2ccccc21)c1ccc(Oc2ccc(C(F)(F)F)cn2)cc1 [UANOX080, N-(2-(indolin-1-yl)ethyl)-4-((5-(trifluoromethyl)pyridin-2-yl)oxy)benzenesulfonamide]",85.5%,60.1%,49.1%
"O=S(=O)(NCCN1CCc2ccccc21)c1ccc(F)c(F)c1 [UANOX081, 3,4-difluoro-N-(2-(indolin-1-yl)ethyl)benzenesulfonamide]",88.8%,67%,55.8%
"N#Cc1ccc(S(=O)(=O)NCCN2CCc3ccccc32)cc1 [UANOX082, 4-cyano-N-(2-(indolin-1-yl)ethyl)benzenesulfonamide]",90.8%,70.7%,60.6%
"CCN(CC)S(=O)(=O)NCC(C)(C)N1CCc2ccccc21 [UANOX083, N—(N,N-diethylaminosulfonyl)-2-(indolin-1-yl)-2-methylpropane-1-amine]",82.3%,73%,66.5%

# Now from value to compound:
remaining activity at 1 µM,remaining activity at 5 µM,remaining activity at 10 µM,Structure (SMILES)
90.3%,77.5%,67.5%,"CC(C)(CNS(=O)(=O)c1ccc(C(F)(F)F)cc1)N1CCc2ccccc21 [UANOX084, N-(2-(indolin-1-yl)-2-methylpropyl)-4-(trifluoromethyl)benzenesulfonamide]"
92.7%,83.5%,73.6%,"CC(C)(CNS(=O)(=O)c1ccc(Oc2ccccc2)cc1)N1CCc2ccccc21 [UANOX085, N-(2-(indolin-1-yl)-2-methylpropyl)-4-phenoxybenzenesulfonamide]"
90.7%,81.6%,71.4%,"CC(C)(CNS(=O)(=O)c1ccc(F)cc1)N1CCc2ccccc21 [UANOX086, 4-fluoro-N-(2-(indolin-1-yl)-2-methylpropyl)benzenesulfonamide]"
99.7%,88.3%,74.1%,"CC(C)(CNS(=O)(=O)c1ccc(F)c(F)c1)N1CCc2ccccc21 [UANOX087, 3,4-difluoro-N-(2-(indolin-1-yl)-2-methylpropyl)benzenesulfonamide]"
102%,90.3%,79.6%,CC(C)(CNS(=O)(=O)c1ccc(Oc2ccc(C(F)(F)F)cn2)cc1)N1CCc2ccccc21 [UANOX088]
101%,83.6%,70.1%,"COc1ccc(S(=O)(=O)NCC(C)(C)N2CCc3ccccc32)cc1 [UANOX089, N-(2-(indolin-1-yl)-2-methylpropyl)-4-methoxybenzenesulfonamide]"
104%,88.7%,74.5%,"CC(C)(CNS(=O)(=O)c1ccc(OC(F)(F)F)cc1)N1CCc2ccccc21 [UANOX090, N-(2-(indolin-1-yl)-2-methylpropyl)-4-(trifluoromethoxy)benzenesulfonamide]"
96.4%,111%,108%,"O=C(CN1CCN(c2ncccn2)CC1)N1CCc2ccccc21 [UANOX0192, 1-(indolin-1-yl)-2-(4-(pyrimidin-2-yl)piperazin-1-yl)ethan-1-one]"
87.8%,88%,76.3%,"COc1cccc(-c2ccc3c(c2)CCN3C(C)CNS(=O)(=O)N2CCN(C)CC2)c1 (stereo not drawn) [UANOX0254, N-(2-(5-(3-methoxyphenyl)indolin-1-yl)propyl)-4-methylpiperazine-1-sulfonamide]"
